The results in this text go back to patent publication US20260070922A1, “PYRAZOLE AND IMIDAZOLE DERIVATIVES AS DUAL OREXIN AND KAPPA-OPIOID RECEPTORS MODULATORS COMPOSITION, METHODS FOR TREATING NEUROLOGICAL AND PSYCHIATRIC DISORDERS” (HAGER BIOSCIENCES, LLC, priority 2022, published 2026).

One may read the IC50 as the concentration that inhibits the measured activity by half. Broadly, the Kb is the affinity of an antagonist, worked out from how it opposes an agonist.

In assay [1] the target is T1, Orexin type 1 (OX1R) receptor (Homo sapiens, UniProt O43613).
T1 construct: expressed in transfected cells; host or cells: CHO cells (G418 selection)
T1 sequence (O43613 1-425): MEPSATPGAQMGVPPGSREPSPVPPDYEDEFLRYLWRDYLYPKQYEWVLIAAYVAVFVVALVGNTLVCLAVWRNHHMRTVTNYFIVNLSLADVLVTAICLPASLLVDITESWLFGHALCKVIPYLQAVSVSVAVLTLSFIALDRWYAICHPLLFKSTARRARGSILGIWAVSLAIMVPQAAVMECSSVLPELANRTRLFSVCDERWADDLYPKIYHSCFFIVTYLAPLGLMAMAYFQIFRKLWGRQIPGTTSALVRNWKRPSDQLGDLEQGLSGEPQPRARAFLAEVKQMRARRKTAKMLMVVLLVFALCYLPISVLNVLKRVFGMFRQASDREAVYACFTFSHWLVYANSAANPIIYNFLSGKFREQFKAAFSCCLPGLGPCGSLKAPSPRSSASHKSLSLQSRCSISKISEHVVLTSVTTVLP
The experiment in a line: In vitro orexin antagonism assay: intracellular calcium measurement (FLIPR), orexin-A 3 nM as agonist. To be noted: for IC50: first value of IC50/Kb cell; for inhibition at 1 µM: read-out: OX1R, % Inh. @ 1 uM; for Kb: second value of IC50/Kb cell. It is filed as cell-based. Here is the method: (§1) In Vitro Orexin Antagonism Measurement Assay: Intracellular Calcium Measurements:
(§2) Chinese hamster ovary (CHO) cells expressing the human […] and the human orexin-2 receptor, respectively, are grown in culture medium (Ham F-12 with L-Glutamine) containing 300 μg/mL G418, 100 U/mL penicillin, 100 μg/mL streptomycin and 10% heat inactivated fetal calf serum (FCS). The cells are seeded at 20,000 cells/well into 384-well black clear bottom sterile plates (Greiner). The seeded plates are incubated overnight at 37° C. in 5% 002. Human orexin-A as an agonist is prepared as 1 mM stock solution in MeOH: water (1:1), diluted in HBSS containing 0.1% bovine serum albumin (BSA), NaHCO3: 0.375 g/L and 20 mM HEPES for use in the assay at a final concentration of 3 nM.
(§3) Antagonists are prepared as 10 mM stock solution in DMSO, then diluted in 384-well plates using DMSO followed by a transfer of the dilutions into in HBSS containing 0.1% bovine serum albumin (BSA), NaHCO3: 0.375 g/L and 20 mM HEPES. On the day of the assay, 50 μL of staining buffer (HBSS containing 1% FCS, 20 mM HEPES, NaHCO3: 0.375 g/L, 5 mM probenecid (Sigma) and 3 μM of the fluorescent calcium indicator fluo-4 AM (1 mM stock solution in DMSO, containing 10% pluronic) is added to each well. The 384-well cell-plates are incubated for 50 min at 37° C. in 5% CO2 followed by equilibration at RT for 30 min before measurement.
(§4) Within the Fluorescent Imaging Plate Reader (FLIPR Tetra, Molecular Devices), antagonists are added to the plate in a volume of 10 μL/well, incubated for 120 min and finally 10 μL/well of agonist is added. Fluorescence is measured for each well at 1 second intervals, and the height of each fluorescence peak is compared to the height of the fluorescence peak induced by 3 nM orexin-A with vehicle in place of antagonist. The IC50 value (the concentration of compound needed to inhibit 50% of the agonistic response) is determined and may be normalized using the obtained IC50 value of an on-plate reference compound. Optimized conditions were achieved by adjustment of pipetting speed and cell splitting regime. The calculated IC50values may fluctuate depending on the daily cellular assay performance. Fluctuations of this kind are known to those skilled in the art.
Background: A change in cytosolic calcium serves as a functional read-out for many receptors and channels.

The target in assay [2] is T2, human orexin-2 receptor (OX2R) (Homo sapiens, UniProt O43614).
T2 construct: expressed in transfected cells; host or cells: CHO cells (G418 selection)
T2 sequence (O43614 1-444): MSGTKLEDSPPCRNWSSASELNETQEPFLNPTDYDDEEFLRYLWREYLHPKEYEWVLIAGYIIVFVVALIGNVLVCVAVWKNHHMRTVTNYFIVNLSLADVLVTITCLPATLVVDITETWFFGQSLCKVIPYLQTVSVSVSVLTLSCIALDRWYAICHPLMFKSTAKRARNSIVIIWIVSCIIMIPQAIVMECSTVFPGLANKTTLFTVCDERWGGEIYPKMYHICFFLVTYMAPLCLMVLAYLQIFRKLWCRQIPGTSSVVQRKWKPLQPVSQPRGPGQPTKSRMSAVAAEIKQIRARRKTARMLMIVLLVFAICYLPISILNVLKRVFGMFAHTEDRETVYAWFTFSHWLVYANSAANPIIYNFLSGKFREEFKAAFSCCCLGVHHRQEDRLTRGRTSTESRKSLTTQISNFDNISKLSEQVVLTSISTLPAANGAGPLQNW
The description is as above. The format is cell-based. The settings on record: for inhibition at 1 µM: read-out: OX2R, % Inh. @ 1 uM. Here is the method:
Antagonistic activities on both orexin receptors have been measured for each example compound using the following procedure:
as §1, §2, §3
as §4, with “art. In the case where IC50values have been determined several times for the same compound, the geometric mean has been given.” for “art.”

As to `O=C(c1c(-c2ccccc2)nc2cc(C(F)(F)F)ccn12)N1[C@H](Cn2ccc(-c3ccc(F)cn3)n2)C[C@@H]2C[C@@H]21` [Example 110], in assay [1], the half-inhibitory concentration (IC50) amounted to 280 nM, the inhibition at 1 µM came out at 69% and the antagonist equilibrium constant (Kb) worked out at 60 nM. Besides, the inhibition at 1 µM in assay [2] amounted to 42%.

With `O=C(c1c(-c2ccccc2)nn2c1COCC2)N1CCOC[C@H]1COc1ccc(C(F)(F)F)cn1` [Example 113], the inhibition at 1 µM in assay [1] was found to be 12%; in assay [2], 8%.

As for `O=C(c1c(-c2ccccc2)nn2ccccc12)N1CCOC[C@H]1COc1ccc(C(F)(F)F)cn1` [Example 114], the inhibition at 1 µM in assay [1] is 14%; in assay [2], 6%.

Turning to `O=C(c1c(-c2ccccc2)nn2c1COCC2)N1CCC[C@H]1Cc1nc(-c2ccc(F)cn2)no1` [Example 116], the inhibition at 1 µM was 10% in assay [1] and 19% in assay [2].

For `O=C(c1c(-c2ccccc2)nc2ccc(F)cn12)N1CCC[C@H]1Cc1nc(-c2ccc(F)cn2)no1` [Example 121], the figures for the inhibition at 1 µM in assay [1] and in assay [2] were 44% and 45%, respectively.

With `O=C(c1nc2ccccn2c1-c1ccccc1)N1CCC[C@H]1Cn1ccc(-c2ccc(F)cn2)n1` [Example 123], the “OX1R, % Inh. @ 1 uM” value in assay [1] (@ 1 uM) is given as 100%. Besides, the “OX2R, % Inh. @ 1 uM” value in assay [2] (@ 1 uM) turned out to be 42%.

For the compound `O=C(c1nc2ccccn2c1-c1ccccc1)N1CCC[C@H]1COc1ccc(C(F)(F)F)cn1` [Example 124], in assay [1], the IC50 stood at 5 nM, the inhibition at 1 µM stood at 100% and the Kb is 1 nM. In addition, the inhibition at 1 µM in assay [2] was found to be 36%.

As to `O=C(c1nn2c(c1-c1ccccc1)OCCC2)N1CCC[C@H]1COc1ccc(C(F)(F)F)cn1` [Example 142], in assay [1], the IC50 was determined as 6 nM, the inhibition at 1 µM was 100% and the Kb is 1 nM. In addition, the inhibition at 1 µM in assay [2] was determined as 42%.

On to `O=C(c1nn2c(c1-c1ccccc1)COCC2)N1C2CCC1(COc1ccc(C(F)(F)F)cn1)CC2` [Example 159], for which, in assay [1], the IC50 stood at 48 nM, the inhibition at 1 µM is 86% and the Kb was determined as 10 nM. The inhibition at 1 µM in assay [2] worked out at 15%.

In the case of `O=C(c1nc2ccccn2c1-c1ccccc1)N1C2CCC1(COc1ccc(C(F)(F)F)cn1)CC2` [Example 160], in assay [1], the IC50 worked out at 24 nM, the inhibition at 1 µM was 98% and the antagonist equilibrium constant (Kb) is 5 nM. Besides, the inhibition at 1 µM in assay [2] is 2%.

In the case of `O=C(c1c(-c2ncccn2)nn2ccccc12)N1C2CCC1(COc1ccc(C(F)(F)F)cn1)CC2` [Example 161], the inhibition at 1 µM worked out at 44% in assay [1] and 6% in assay [2].

`C[C@@]1(COc2cnc(C(F)(F)F)cn2)CCCN1C(=O)c1nn2c(c1-c1ccccc1)COCC2` [Example 162]: the results for the inhibition at 1 µM in assay [1] and in assay [2] were 36% and 0%, respectively.

On to `C[C@@]1(COc2cnc(C(F)(F)F)cn2)CCCN1C(=O)c1nc2ccccn2c1-c1ccccc1` [Example 163], for which, in assay [1], the half-maximal inhibitory concentration (IC50) came to 771 nM, the inhibition at 1 µM came to 75% and the antagonist dissociation constant (Kb) came out at 162 nM. Moreover, the inhibition at 1 µM in assay [2] came out at 11%.

Take `C[C@@]1(COc2cnc(C(F)(F)F)cn2)CCCN1C(=O)c1c(-c2ccccn2)nn2ccccc12` [Example 164]: in assay [1], the half-inhibitory concentration (IC50) stood at 305 nM, the inhibition at 1 µM came to 84% and the antagonist equilibrium constant (Kb) came out at 64 nM. Also, the inhibition at 1 µM in assay [2] is 20%.

For the compound `C[C@@]1(COc2cnc(C(F)(F)F)cn2)CCCN1C(=O)c1nn2c(c1-c1ccccc1)OCCC2` [Example 165], the inhibition at 1 µM in assay [1] is 50%; in assay [2], 6%.

As for `C[C@@]1(COc2cnc(C(F)(F)F)cn2)CCCN1C(=O)c1c(-c2ncccn2)nn2ccccc12` [Example 166], the inhibition at 1 µM in assay [1] came to 53%; in assay [2], 10%.

As for `C[C@@]1(COc2cnc(C(F)(F)F)cn2)CCCN1C(=O)c1nn2cccnc2c1-c1ccccc1` [Example 167], in assay [1], the IC50 stood at 326 nM, the inhibition at 1 µM was 82% and the antagonist equilibrium constant (Kb) amounted to 69 nM. The inhibition at 1 µM in assay [2] was found to be 20%.

As for `C[C@@]1(COc2cnc(C(F)(F)F)cn2)CCCN1C(=O)c1c(-c2ccccc2)nn2cccnc12` [Example 168], in assay [1], the concentration for half-maximal inhibition (IC50) was 475 nM, the inhibition at 1 µM was determined as 72% and the Kb was 100 nM. Besides, in assay [2], the inhibition at 1 µM amounted to 28%.

For `C[C@@]1(COc2cnc(C(F)(F)F)cn2)CCCN1C(=O)c1c(-c2ccccc2)nn2c1COCC2` [Example 169], the inhibition at 1 µM worked out at 2% in assay [1] and 15% in assay [2].

With `C[C@@]1(COc2cnc(C(F)(F)F)cn2)CCCN1C(=O)c1nn2ccccc2c1-c1ccccc1` [Example 170], in assay [1], the IC50 was found to be 460 nM, the inhibition at 1 µM was found to be 85% and the antagonist dissociation constant (Kb) came to 97 nM. In addition, the inhibition at 1 µM in assay [2] turned out to be 23%.

For `O=C(c1nn2ccccc2c1-c1ccccn1)N1CCC[C@H]1Cc1nc(-c2ccccn2)no1` [Example 175], in assay [1], the IC50 came out at 11 nM, the inhibition at 1 µM stood at 93% and the antagonist equilibrium constant (Kb) came to 2 nM. Further, in assay [2], the inhibition at 1 µM was found to be 29%.

For the compound `O=C(c1nn2ccccc2c1-c1ccccn1)N1CCC[C@H]1Cc1nc(-c2ccc(F)cn2)no1` [Example 176], in assay [1], the concentration for half-maximal inhibition (IC50) amounted to 12 nM, the inhibition at 1 µM was 93% and the Kb was 2 nM. In addition, in assay [2], the inhibition at 1 µM amounted to 40%.

Consider `O=C(c1nc2ccccn2c1-c1ccccn1)N1CCC[C@H]1COc1ccc(C(F)(F)F)cn1` [Example 179], for which, in assay [1], the IC50 turned out to be 8 nM, the inhibition at 1 µM was 99% and the antagonist equilibrium constant (Kb) worked out at 2 nM. The inhibition at 1 µM in assay [2] amounted to 12%.

For the compound `O=C(c1nc2ccccn2c1-c1ccccn1)N1CCC[C@H]1Cn1ccc(-c2ccccn2)n1` [Example 180], in assay [1], the IC50 is 17 nM, the inhibition at 1 µM worked out at 97% and the Kb worked out at 4 nM. Moreover, the inhibition at 1 µM in assay [2] amounted to 27%.

For `O=C(c1nn2ccccc2c1-c1ccccn1)N1CCC[C@H]1Cn1ccc(-c2ccc(F)cn2)n1` [Example 182], in assay [1], the IC50 worked out at 19 nM, the inhibition at 1 µM came to 96% and the antagonist dissociation constant (Kb) was 4 nM. In addition, in assay [2], the inhibition at 1 µM was found to be 59%.

`O=C(c1nc2n(c1-c1ccccn1)CCOC2)N1CCC[C@H]1COc1ccc(C(F)(F)F)cn1` [Example 184]: the inhibition at 1 µM stood at 42% in assay [1] and 10% in assay [2].
